Laboratory results: PubChem BioAssay (NCI)
Several values for one entry are separate records, joined by “and”; a condition that tells them apart may be missing. Equal values may be shown once.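 Briefly, cells in 96-well plates were exposed to five compound concentrations for 48 h, and endpoints were estimated by linear interpolation. GI50: concentration for 50% inhibition of growth. TGI is the concentration that stops growth completely.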

Assays:
Assay in all cases: DTP human tumour cell line panel, 48 h
[1] = test system: KM12 colon
[2] = test system: SF-295 CNS
[3] = test system: SF-268 CNS
[4] = test system: NCI-H23 lung
[5] = test system: COLO 205 colon
[6] = test system: ACHN renal
[7] = test system: MCF7 breast
[8] = test system: SK-MEL-5 melanoma
[9] = test system: SK-OV-3 ovarian
[10] = test system: RPMI-8226 leukemia

Compound | TGI [1] | TGI [2] | TGI [3] | TGI [4] | TGI [5] | TGI [6] | TGI [7] | TGI [8] | TGI [9] | GI50 [10] | TGI [10] | GI50 [1] | GI50 [2] | GI50 [3] | GI50 [4] | GI50 [5] | GI50 [6] | GI50 [7] | GI50 [8] | GI50 [9]
CC12CCc3ccccc3C1=Nc1ccccc12 (centres undefined) | 91.9 µM | > 100 µM | > 100 µM | > 100 µM | > 100 µM | > 100 µM | > 100 µM | 30.4 µM | > 100 µM | – | – | – | – | – | – | – | – | – | – | –
CCOC(=O)N1C/C(=C/c2ccc(OC)cc2)C(=O)/C(=C/c2ccc(OC)cc2)C1 | 2.5 µM | 5.81 µM | > 45.1 µM | 20.2 µM | 5.28 µM | 5.18 µM | 3.2 µM | 3.17 µM | 16.6 µM | 0.211 µM | 1.6 µM | 0.946 µM | 2.17 µM | 3.58 µM | 3.26 µM | 2.18 µM | 1.96 µM | 0.363 µM | 1.6 µM | 3.63 µM
O=C(N=Nc1c(O)[nH]c2c(Cl)cc(Cl)cc12)c1ccncc1 | > 100 µM | > 100 µM | – | 56.5 µM | > 100 µM | > 100 µM | > 100 µM | 33.4 µM | 69.8 µM | – | – | – | – | – | – | – | – | – | – | –
CCc1ccccc1-n1c2nc(=O)n(C)c(=O)c-2nc2ccccc21 | 34.2 µM | 24 µM | 24 µM | 18.2 µM | 12.5 µM | 16.3 µM | – | 16.8 µM | > 100 µM | – | 58.7 µM | – | – | – | – | – | – | – | – | –
COc1ccc(OC)c(-c2cc(-c3ccccc3)nn2-c2ccc(S(N)(=O)=O)cc2)c1 | 21.6 µM | 29.2 µM | 27.5 µM | 30.2 µM | – | 19.7 µM | 16 µM | 31.3 µM | – | 1.93 µM | 4.84 µM | 6.93 µM | 13.6 µM | 12.6 µM | 15.8 µM | – | 8.01 µM | 3.08 µM | 16.5 µM | –
CCOC(=O)c1cc2cc(NC(=O)c3cc4cc([N+](=O)[O-])ccc4n3C)ccc2n1C | > 100 µM | > 100 µM | > 100 µM | 37 µM | > 100 µM | 31.9 µM | > 100 µM | > 100 µM | – | 49.7 µM | > 100 µM | 49 µM | 30.1 µM | 49.1 µM | 12.3 µM | 76.5 µM | 13.5 µM | 44.2 µM | 74 µM | –
CC(C)c1cc(CNc2nc(Nc3cc(C4CC4)[nH]n3)cc(N3CCN(C)CC3)n2)on1 | > 10 µM and 10.7 µM | > 10 µM and 2.77 µM | > 10 µM and 2.25 µM | > 10 µM and 3.37 µM | – | > 10 µM and 6.66 µM | > 10 µM and 13.1 µM | > 10 µM and 4.72 µM | 4.45 µM and 5.4 µM | 8.33 µM and 1.7 µM | > 10 µM and 5.76 µM | – | – | 1.7 µM and 0.277 µM | 1.54 µM and 0.173 µM | – | – | – | > 10 µM and 1.32 µM | 0.904 µM and 0.335 µM
COC(=O)C1=C(c2cc(OC)c(OC)c(OC)c2)OC(c2cc(OC)c(OC)c(OC)c2)C1COC(C)=O (centres undefined) | > 100 µM | > 100 µM | > 100 µM | > 100 µM | 33.4 µM | > 100 µM | – | 97.8 µM | > 100 µM | – | > 100 µM | – | – | – | – | – | – | – | – | –
O=C(/C=C/c1c(O)ccc2ccccc12)c1cccc2ccccc12 | > 100 µM | > 100 µM | > 100 µM | > 100 µM | > 100 µM | > 100 µM | – | > 100 µM | > 100 µM | – | > 78 µM | – | – | – | – | – | – | – | – | –
CN1CCN(Cc2ccc(NC(=O)c3[nH]ncc3Nc3ncnc4sccc34)cc2)CC1 | > 100 µM | > 100 µM | 3.73 µM | – | – | 0.791 µM | > 100 µM | – | – | 0.36 µM | 1.38 µM | 0.297 µM | 0.325 µM | 0.446 µM | – | – | 0.223 µM | 0.126 µM | – | –
CC(F)(F)c1cc(F)ccc1-c1sc2cc(O)ccc2c1Oc1ccc(/C=C/C(=O)O)cc1 | 18.4 µM | 20.5 µM | 24.1 µM | 37.4 µM | – | 45.5 µM | 15.2 µM | 15.3 µM | – | 8.33 µM | 74.8 µM | 4.72 µM | 5.23 µM | 7.31 µM | 15.2 µM | – | 10.3 µM | – | 4.05 µM | –
COC(=O)[C@@H](Cc1c[nH]c2ccccc12)NC(=O)/C=C/c1ccccc1 | 33.5 µM | – | > 100 µM | > 100 µM | 50.3 µM | > 100 µM | > 100 µM | 13.8 µM | > 100 µM | 3.48 µM | 33.7 µM | 4.13 µM | – | 4.52 µM | 4.32 µM | 12.4 µM | 4.08 µM | 3.2 µM | 3.14 µM | 3.15 µM
Oc1ccc(Br)cc1/C=N/NC(=S)NC12CC3CC(CC(C3)C1)C2 | 4.35 µM | 7.89 µM | 4.14 µM | – | 11.1 µM | 10.3 µM | 5.92 µM | 3.74 µM | 11.9 µM | 2.07 µM | 5.8 µM | 1.8 µM | 2.6 µM | 1.44 µM | – | 3.44 µM | 2.08 µM | 1.86 µM | 1.72 µM | 3.54 µM
CN(/N=C/c1ccnc2ccccc12)c1ccc([N+](=O)[O-])cc1[N+](=O)[O-] | > 100 µM | > 100 µM | > 100 µM | > 100 µM | > 100 µM | > 100 µM | – | > 100 µM | > 100 µM | – | > 100 µM | – | – | – | – | – | – | – | – | –
CC(C)=CCC/C(C)=C/CC/C(=C/COP(=O)(OCc1ccc([N+](=O)[O-])o1)N(C)CCCCCl)CC=C(C)C (centres undefined) | 17.1 µM | 26 µM | 29.9 µM | – | 66.4 µM | – | 5.91 µM | 12.1 µM | 55.8 µM | 3.56 µM | > 100 µM | 2.98 µM | 7.14 µM | 15.1 µM | – | 8.01 µM | – | 1.88 µM | 3.96 µM | 18.2 µM
CC1=Nc2c([nH]c(=S)[nH]c2=O)NC(c2ccc(Cl)c(Cl)c2)C1 (centres undefined) | 32.3 µM | 46.3 µM | > 93.1 µM | 40.2 µM | 32.7 µM | > 100 µM | – | > 60.7 µM | 95.6 µM | – | > 100 µM | – | – | – | – | – | – | – | – | –
